Laboratory results: article PMC5556071, “ATR inhibition facilitates targeting of leukemia dependence on convergent nucleotide biosynthetic pathways” (Nature Communications, 2017)
Values joined by “and” are separate entries in the source; they are usually repeats but may differ in a detail not shown here. Identical values can stand only once.

How the values were obtained:
CEM cells [1] = test: Targeted LC-MS/MS-MRM of de novo and salvage dCTP biosynthesis (nucleotide pools and newly replicated DNA); assay type: cell-based, human
Procedure: Cells were transferred into RPMI-1640 without glucose and supplemented with 10% dialyzed FBS (Gibco) containing the following labeled substrates: precursors for de novo [U-^13C6]glucose (Sigma-Aldrich, 389374) at 11 mM; precursors for purine salvage [U-^13C10,^15N5]dA (Cambridge Isotopes, CIL 3896), [^15N5]dA (Cambridge Isotopes, NLM-3895) and [^15N5]dG (Cambridge Isotopes, NLM-3899) at 5 µM or as indicated; and precursors for pyrimidine salvage: [U-^13C9,^15N3]dC (Silantes, 124603602) and [U-^13C10,^15N2]dT (Cambridge Isotopes, CNLM-3902) at 5 µM and [^15N2]orotate (Cambridge Isotopes, NLM-1048) at indicated concentrations. The cells were incubated for 12 h or as indicated before sample collection and processing.
The rates of dCTP incorporation into the DNA were determined using linear regression with procedure GLM in SAS (v. 9.4). DNA % label was transformed using a shifted log addition of 1 due to the presence of zeros in the data set. Rates were calculated using the slope of the regression line for the log transformed data and are presented in the table with the associated standard errors, along with the ratio between the rate of incorporation into DNA by the de novo and salvage pathways (Table 1).
Cell cycle synchronization. Cells were treated with a CDK4/6 inhibitor, Pablociclib or PD-0332991 (Selleckchem, S1116) for 18 h to synchronize them in the G1 phase. Subsequently, cells were washed twice with PBS containing 2% FBS (Omega Scientific) and released into fresh media. […]
Clinical Microarray Core on an Illumina HiSeq3000 using the SeqCap EZ Exome Enrichment Kit v3.0 (Roche).
Reads were mapped to UCSC hg19 (bwa-mem), deduplicaed (PicardTools), and subjected to base quality score recalibration and realignment around known indels according to the Broad Institute Genome Analysis Toolkit (GATK) Best Practices v3.0. Variants in genes associated with nucleotide biosynthesis were identified using the GATK HaplotypeCaller, and annotated with Oncotator (http://portals.broadinstitute.org/oncotator/). dNTP sample processing. 0.5 – 1 x 10^6 cells were collected into 1.5 mL microcentrifuge tubes and centrifuged (450 x g, 4 min, 4 °C). The supernatant was carefully aspirated and the cells were washed twice with 1 mL of cold PBS, followed each time by centrifugation (450 x g, 4 min 4 °C). The PBS were aspirated.
Thereafter, the pellets were treated with 10 µL of 10% trifluoroacetic acid with internal standards (1 µM […]
s, and incubated on ice for 10 min. 40 µL of 500 mM ammonium acetate, pH = 9.3, with the same internal standard (1 µM [15N3]dCMP and [15N3]dCTP) was then added and the samples were vigorously vortexed again for 30 s. The samples were centrifuged (14,000 x g, 10 min, 4 °C) to remove cell debris. The supernatants (~ 40 µL) were transferred into HPLC injector vials. Stock solutions (10 mM) of rCTP, rCDP, dCMP, dCDP, and dCTP (Sigma Aldrich) were prepared individually in water, and stored at –20 °C before use to generate calibration standards. Calibration standards were prepared and mixed together in water with internal standards (1 µM [15N3]dCMP and [15N3]dCTP) to make working stock concentrations in 100 nM – 100 µM range.
Calibration standards were diluted 10-fold into the same nucleotide extraction solution of 10% TFA/500 mM ammonium acetate (1:4, v/v) with internal standards (1 µM [15N3]dCMP and [15N3]dCTP) to give a final concentration in 10 nM – 10 µM. Nucleotide and calibration samples were processed together to minimize […]
DNA sample processing. Genomic DNA from 0.5 – 1 x 10^4 cells was extracted using the Quick-gDNA MiniPrep kit (Zymo Research, D3021) and hydrolyzed to nucleosides using the DNA Degradase Plus kit (Zymo Research, E2021), following manufacturer-supplied instructions. In the final step of DNA extraction, 50 µL of […]
water was used to elute the DNA into 1.5 mL microcentrifuge tubes. A nuclease solution (5 µL; 10X buffer/DNA Degradase Plus™/water, 2.5/1/1.5, v/v/v) was added to 20 µL of the eluted genomic DNA in an HPLC injector […]
vial. […]

[2] = tested on: dasatinib-resistant p185BCR-ABL Arf–/– pre-B-ALL cells; test: Apoptosis assay, Annexin V and PI staining; assay type: cell-based, mouse; conditions: 350 nM 3-AP, 100 nM VE-822, 1 µM dCKi, 72 h
Procedure: (§1) Apoptosis and cell death were assayed using Annexin V-FITC and PI according to manufacturer’s instructions (FITC Annexin V Apoptosis Detection Kit, BD Sciences, #556570). […]
(§2) Annexin V staining. Cells were treated with the indicated treatments for 24 or 72 h, then collected and washed twice with 1 mL of FACS buffer (2% FBS in PBS). Induction of apoptosis and cell death were assayed by staining the cells with Annexin V-FITC and PI according to manufacturer’s instructions (FITC Annexin V Apoptosis Detection Kit, BD Sciences, #556570).
(§3) FACS analysis. All flow cytometry data were acquired on five-laser LSRII cytometers (BD) for analysis, and analyzed using FlowJo software (Tree Star). […]

CEM cells [3] = test: Apoptosis assay, Annexin V and PI staining; assay type: cell-based, human; conditions: 500 nM 3-AP, 1 µM VE-822, 1 µM dCKi, 24 h
Procedure: as §1, §2, §3

[4] = CEM 12 h, 1 uM VE-822, 1 uM DI-82, 500 nM 3-AP, #1-#3

## NC(=S)N/N=C/c1ncccc1N [3-AP]
CEM cells [1]; [4]
  % sum abundance, de novo DNA-C, mass increase in nucleobase +0, in deoxyribose +3: 0.0554% and 0.0456% and 0.04%
  % sum abundance, de novo DNA-C, mass increase in nucleobase +0, in deoxyribose +4: 0.02% and 0.0358% and 0.0465%
  % sum abundance, de novo DNA-C, mass increase in nucleobase +0, in deoxyribose +5: 0.55% and 0.53% and 0.50%
  % sum abundance, de novo DNA-C, mass increase in nucleobase +1, in deoxyribose +3: 0.00%
  % sum abundance, de novo DNA-C, mass increase in nucleobase +1, in deoxyribose +4: 0.00%
  % sum abundance, de novo DNA-C, mass increase in nucleobase +1, in deoxyribose +5: 0.07% and 0.0542% and 0.0459%
  % sum abundance, de novo DNA-C, mass increase in nucleobase +2, in deoxyribose +4: 0.00%
  % sum abundance, de novo DNA-C, mass increase in nucleobase +2, in deoxyribose +5: 0.0465% and 0.04% and 0.032%
  % sum abundance, de novo DNA-C, mass increase in nucleobase +3, in deoxyribose +4: 0.00%
  % sum abundance, de novo DNA-C, mass increase in nucleobase +3, in deoxyribose +5: 0.00%
  % sum abundance, de novo DNA-C, mass increase in nucleobase +4, in deoxyribose +4: 0.00%
  % sum abundance, de novo DNA-C, mass increase in nucleobase +4, in deoxyribose +5: 0.00%
  % sum abundance, salvage DNA-C, mass increase in nucleobase +5, in deoxyribose +0: 0.00%
  % sum abundance, salvage DNA-C, mass increase in nucleobase +5, in deoxyribose +4: 0.00%
  % sum abundance, salvage DNA-C, mass increase in nucleobase +5, in deoxyribose +5: 0.00%
  % sum abundance, salvage DNA-C, mass increase in nucleobase +6, in deoxyribose +0: 0.00%
  % sum abundance, salvage DNA-C, mass increase in nucleobase +6, in deoxyribose +4: 0.00%
  % sum abundance, salvage DNA-C, mass increase in nucleobase +6, in deoxyribose +5: 0.39% and 0.40%
  % sum abundance, salvage DNA-C, mass increase in nucleobase +7, in deoxyribose +0: 0.00%
  % sum abundance, salvage DNA-C, mass increase in nucleobase +7, in deoxyribose +4: 0.23% and 0.25%
  % sum abundance, salvage DNA-C, mass increase in nucleobase +7, in deoxyribose +5: 4.69% and 4.96% and 4.68%
  % sum abundance, unlabeled DNA-C, mass increase in nucleobase +0, in deoxyribose +0: 83.63% and 83.39% and 83.92%
  % sum abundance, unlabeled DNA-C, mass increase in nucleobase +0, in deoxyribose +1: 4.68% and 4.72% and 4.61%
  % sum abundance, unlabeled DNA-C, mass increase in nucleobase +0, in deoxyribose +2: 0.67% and 0.60% and 0.58%
  % sum abundance, unlabeled DNA-C, mass increase in nucleobase +1, in deoxyribose +0: 4.40% and 4.42% and 4.39%
  % sum abundance, unlabeled DNA-C, mass increase in nucleobase +1, in deoxyribose +1: 0.26%
  % sum abundance, unlabeled DNA-C, mass increase in nucleobase +1, in deoxyribose +2: 0.00%
  % sum abundance, unlabeled DNA-C, mass increase in nucleobase +2, in deoxyribose +0: 0.31% and 0.29% and 0.26%
  % sum abundance, unlabeled DNA-C, mass increase in nucleobase +2, in deoxyribose +1: 0.00%
  % sum abundance, unlabeled DNA-C, mass increase in nucleobase +2, in deoxyribose +2: 0.00%
  % sum abundance, unlabeled DNA-C, mass increase in nucleobase +3, in deoxyribose +0: 0.00%
  % sum abundance, unlabeled DNA-C, mass increase in nucleobase +3, in deoxyribose +1: 0.00%
  % sum abundance, unlabeled DNA-C, mass increase in nucleobase +4, in deoxyribose +0: 0.00%
CEM cells [1]; CEM, 500 nM 3-AP, 12 h
  increase of incorporation of salvage-produced dCTP into DNA: > 1.5 fold
  rCTP and rCDP pools: doubled
  reduction in the incorporation of de novo produced dCTP into DNA: ~ 19 fold
  salvage dC nucleotide pools: doubled
CEM cells [1]; asynchronous CEM, 12 h
  increase of salvage contributions to the dCMP, dCDP and dCTP pools: approximately twofold
[2]; cells harvested from bone marrow of a treated leukemic mouse
  Annexin V+ cells (apoptosis induction): 22.0%
[2]; cells prior to inoculation in mice
  Annexin V+ cells (apoptosis induction): 32.6%
CEM cells [3]
  Annexin V+ cells (apoptosis induction): 31.0%
